Reference: ChEMBL document CHEMBL4811289, “Antibacterial and Cytotoxic Phenyltetracenoid Polyketides from Streptomyces morookaense” (J Nat Prod, 2021)
Values after ≈ are worked out from the molar mass of the structure shown. Where a name gives a salt, the structure may show the parent alone.

What was measured:
Vero = experiment: Cytotoxicity against African green monkey Vero cells assessed as reduction in cell viability after 72 hrs by MTT assay; format: cell-based, Chlorocebus sabaeus
Staphylococcus aureus [1] = experiment: Antibacterial activity against methicillin-sensitive Staphylococcus aureus incubated for 6 to 8 hrs by MABA; format: functional; conditions: time 6-8 hrs
HepG2 = experiment: Cytotoxicity against human HepG2 cells assessed as reduction in cell viability after 72 hrs by MTT assay; format: functional, cell-based
HeLa = experiment: Cytotoxicity against human HeLa cells assessed as reduction in cell viability after 72 hrs by MTT assay; format: functional, cell-based
Enterococcus faecium [2] = experiment: Antibacterial activity against vancomycin-sensitive Enterococcus faecium incubated for 6 to 8 hrs by MABA; format: functional; conditions: time 6-8 hrs
Enterococcus faecium [3] = experiment: Antibacterial activity against vancomycin-resistant Enterococcus faecium incubated for 6 to 8 hrs by MABA; format: functional; conditions: time 6-8 hrs
Staphylococcus aureus [4] = experiment: Antibacterial activity against methicillin-resistant Staphylococcus aureus ATCC 6548 incubated for 6 to 8 hrs by MABA; format: functional; conditions: time 6-8 hrs
A549 = experiment: Cytotoxicity against human A549 cells assessed as reduction in cell viability after 72 hrs by MTT assay; format: functional, cell-based
MCF7 = experiment: Cytotoxicity against human MCF7 cells assessed as reduction in cell viability after 72 hrs by MTT assay; format: functional, cell-based
[5] = Chlorocebus sabaeus, Vero, 72 h

Row | Structure (SMILES) | IC50 (Vero; [5]) [µM] | MIC (Staphylococcus aureus [1]) [µg/mL] | IC50 (HepG2; Homo sapiens, HepG2, 72 h) [µM] | IC50 (HeLa; Homo sapiens, HeLa, 72 h) [µM] | MIC (Enterococcus faecium [2]) [µg/mL] | MIC (Enterococcus faecium [3]) [µg/mL] | MIC (Staphylococcus aureus [4]) [µg/mL] | IC50 (A549; Homo sapiens, A549, 72 h) [µM] | IC50 (MCF7; Homo sapiens, MCF7, 72 h) [µM] | IC50 (Vero; vero) [µM] | IC50 (HepG2; hepg2) [µM] | IC50 (HeLa; hela) [µM] | IC50 (A549; a549) [µM] | IC50 (MCF7; mcf7) [µM]
1 | COc1cc(C)c(-c2cc(O)c(Cl)c3cc4c(c(O)c23)C(=O)c2c(cc(O)c(Cl)c2O)C4(C)C)c(O)c1 | 47 | 1.25 (≈ 2.31 µM) | 9.4 | 11 | 2.5 (≈ 4.62 µM) | 5 (≈ 9.24 µM) | 1.25 (≈ 2.31 µM) | 8.9 | 21.7 | – | – | – | – | –
2 | COc1cc2c(c(O)c1Cl)C(=O)c1c(cc3c(Cl)c(O)cc(-c4c(C)c(Cl)c(O)c(Cl)c4O)c3c1O)C2(C)C | 27.3 | – | 9.8 | 14.3 | – | – | – | 7 | 18.1 | – | – | – | – | –
3 | COc1cc(-c2c(O)cc(OC)c(Cl)c2C)c2c(O)c3c(cc2c1)C(C)(C)c1cc(OC)c(Cl)c(O)c1C3=O | 18 | > 10 | 10.2 | 22.4 | > 10 | – | > 10 | 7.7 | 18.3 | – | – | – | – | –
4 | COc1cc2c(c(O)c1Cl)C(=O)c1c(cc3c(Cl)c(O)cc(-c4c(C)c(Cl)c(OC)c(Cl)c4O)c3c1O)C2(C)C | 12 | 2.5 (≈ 4 µM) | 8.8 | 9.9 | 2.5 (≈ 4 µM) | 5 (≈ 8.01 µM) | 2.5 (≈ 4 µM) | 5.6 | 13.9 | – | – | – | – | –
5 | COc1cc(C)c(-c2cc(OC)cc3cc4c(c(O)c23)C(=O)c2c(cc(OC)c(Cl)c2OC)C4(C)C)c(O)c1 | 5.8 | > 10 | 3.2 | 4.1 | > 10 | – | > 10 | 6.4 | 7.9 | – | – | – | – | –
6 | COc1cccc2c1C(=O)c1c(O)c3c(c(O)c1C2=O)C[C@@](O)(C(=O)CO)C[C@@H]3O[C@H]1C[C@H](N)[C@H](O)[C@H](C)O1 [DOXORUBICIN HYDROCHLORIDE] | – | – | 0.8 | 0.31 | – | – | – | 0.69 | 1.02 | – | – | – | – | –
7 | COc1cc2c(c(O)c1Cl)C(=O)c1c(cc3cc(O)cc(-c4c(O)cc(O)c(Cl)c4C)c3c1O)C2(C)C | 14.6 | – | 11.7 | 15 | – | – | – | 13.1 | 17.6 | – | – | – | – | –
8 | COc1cc(C)c(-c2cc(OC)cc3cc4c(c(O)c23)C(=O)c2c(O)cc(O)cc2C4(C)C)c(O)c1 | 6.4 | 1.25 (≈ 2.57 µM) | 4.4 | 4.7 | 1.25 (≈ 2.57 µM) | 1.25 (≈ 2.57 µM) | 1.25 (≈ 2.57 µM) | 3.3 | 7.1 | – | – | – | – | –
9 | COc1cc2c(c(O)c1Cl)C(=O)c1c(cc3cc(O)cc(-c4c(C)c(Cl)c(O)c(Cl)c4OC)c3c1O)C2(C)C | 11.1 | – | 4.7 | 4.8 | – | – | – | 5.4 | 18.4 | – | – | – | – | –
10 | COc1cc(C)c(-c2cc(O)cc3cc4c(c(O)c23)C(=O)c2c(cc(OC)c(Cl)c2OC)C4(C)C)c(O)c1 | 3 | 2.5 (≈ 4.67 µM) | 5.7 | 3.9 | 2.5 (≈ 4.67 µM) | 2.5 (≈ 4.67 µM) | 2.5 (≈ 4.67 µM) | 3.3 | 5 | – | – | – | – | –
11 | COc1cc(C)c(-c2nc(C)cc3cc4c(c(O)c23)C(=O)c2c(cc(OC)c(Cl)c2OC)C4(C)C)c(OC)c1 | 6.1 | > 10 | 9.5 | 3.4 | > 10 | – | > 10 | 14.5 | 4.4 | 10 | 8.7 | 3.3 | 12.6 | 8.7
12 | COc1cc2c(c(O)c1Cl)C(=O)c1c(cc3cc(O)cc(-c4c(C)c(Cl)c(O)c(Cl)c4O)c3c1O)C2(C)C | 12.5 | – | 4.5 | 6.1 | – | – | – | 4.6 | 9.2 | – | – | – | – | –
13 | COc1cc(C)c(-c2cc(O)cc3cc4c(c(O)c23)C(=O)c2c(cc(O)c(Cl)c2O)C4(C)C)c(O)c1 | 33 | 5 (≈ 9.86 µM) | 11.9 | 15.2 | 2.5 (≈ 4.93 µM) | 10 (≈ 19.7 µM) | 5 (≈ 9.86 µM) | 13.3 | 40.3 | – | – | – | – | –
14 | COc1cc(C)c(C(=O)c2c(CC(C)=O)cc3c(c2O)C(=O)c2c(OC)cc(OC)cc2C3(C)C)c(OC)c1 | > 50 | > 10 | > 50 | > 50 | > 10 | – | > 10 | 13.1 | 29.3 | – | – | – | – | –
15 | COc1cc2c(c(O)c1Cl)C(=O)c1c(cc3c(Cl)c(OC)cc(-c4c(O)cc(O)c(Cl)c4C)c3c1O)C2(C)C | 7.9 | 2.5 (≈ 4.24 µM) | 6.2 | 6.3 | 1.25 (≈ 2.12 µM) | 5 (≈ 8.48 µM) | 2.5 (≈ 4.24 µM) | 5.2 | 10.1 | – | – | – | – | –
